Experimental findings from ChEMBL document CHEMBL1201862, “PubChem BioAssay data set” (2004) are described below.

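Dose response: 5 concentrations. Exposure: 48 h. Format: 96-well plates. Endpoint: linear interpolation; highest concentration if not reached. The concentration for 50% growth inhibition is given as GI50.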 The source made the active and inactive calls. No stated cut-off is given here; in the data, active = GI50 up to about 1.1 µM and inactive = higher.

Common to all, as to assay: NCI tumour cell line growth inhibition, 48 h
Test [1] concerns CAKI-1.
Test [2] concerns OVCAR-4.
For test [3], the system named is HCT-15.
Test [4] has as its system T47D.
For test [5], the system named is MCF7.
Test [6] deals with SF-295.
The test system of test [7] is ACHN.
For test [8], the system named is COLO 205.
Test [9] relates to HL-60.
Test [10] has as its system SK-MEL-28.
In test [11] the test system is IGROV-1.
The subject of test [12] is SK-OV-3.
Test [13] has as its system Hs-578T.
The test system of test [14] is UACC-62.
Test [15] has as its system A498.
For test [16], the system named is SF-268.
Test [17] relates to SK-MEL-2.
The test system of test [18] is OVCAR-8.
The test system of test [19] is DU-145.
In test [20] the test system is RXF 393.

Take `CN(C)CCn1c(=O)c2ccc(NCCNCCO)c3c(=O)c4ccccc4n(c1=O)c23`: the GI50 in [1] was < 0.0108 µM (active); in [2], 0.514 µM (active); in [3], 0.279 µM; in [4], 0.129 µM (active); in test [5], < 0.01 µM (active); in test [6], 0.0469 µM (active). Also, the GI50 in [7] is 0.0116 µM (active); in [8] it was 0.0703 µM (active); in test [9], < 0.01 µM (active); in test [10] it was 0.815 µM (active); in test [11] it was 0.0596 µM (active); in test [12], 0.164 µM (active). Besides, the GI50 is 0.23 µM (active) in test [13]; 0.0467 µM (active) in [14]; 0.106 µM (active) in test [15]; 0.0471 µM (active) in [16]; 0.423 µM (active) in test [17]; 0.0632 µM (active) in test [18]. In addition, the GI50 in test [19] was 0.0217 µM (active).

Take `Cn1c(=O)c2c(ncn2CCCCOc2ccc3c(c2)[n+]([O-])nc(N)[n+]3[O-])n(C)c1=O`: the GI50 is 59.8 µM (inactive) in test [1]; 41.8 µM (inactive) in test [2]; 65.2 µM in [3]; 2.38 µM (inactive) in test [4]; 11.9 µM (inactive) in test [5]; 14.9 µM (inactive) in [20]. For the same compound, the GI50 is 32.6 µM (inactive) in test [6]; 17 µM (inactive) in test [8]; 34.9 µM (inactive) in test [9]; 34.7 µM (inactive) in test [10]; 15.7 µM (inactive) in test [11]; 30.3 µM (inactive) in [12]. Further, the GI50 in test [13] was 22.9 µM (inactive); in test [14] it was 17.1 µM (inactive); in [16], 32.9 µM (inactive); in test [17], 28.9 µM (inactive); in test [18] it was 20 µM (inactive); in test [19], 44.2 µM (inactive).

As for `C=CCSC(C)=O`, the GI50 is > 100 µM (inactive) in test [1]; > 100 µM (inactive) in test [2]; > 100 µM in test [3]; > 100 µM (inactive) in test [4]; > 100 µM (inactive) in test [5]; > 100 µM (inactive) in test [6]. For the same compound, the GI50 in test [7], in [8], in test [9], in test [10], in test [11] and in test [12] was > 100 µM (inactive) each time. Also, the GI50 in test [13], in [14], in test [15], in test [16], in test [17] and in test [18] was > 100 µM (inactive) in each case. Also, the GI50 in test [19] is > 100 µM (inactive).

For `CCOC(=O)NC(Nc1ccc(C)cc1)(C(F)(F)F)C(F)(F)F`, the GI50 was > 100 µM (inactive) in test [2]; > 100 µM in [3]; > 100 µM (inactive) in test [4]; > 100 µM (inactive) in test [5]; > 100 µM (inactive) in test [6]; > 100 µM (inactive) in test [7]. In addition, the GI50 in [8], in test [9], in [10], in test [11], in test [12] and in test [13] was > 100 µM (inactive) throughout. For the same compound, the GI50 in [14], in [15], in [16], in [18] and in test [19] was > 100 µM (inactive) each time.

Take `CCOC1(OCC)N=C(N)C2(C#N)C3(C(=O)N(C(C)C)N=C3C)C12C#N` (configuration not stated): the GI50 in [1] is > 100 µM (inactive); in test [2], > 100 µM (inactive); in test [3], > 100 µM; in test [4] it was > 100 µM (inactive); in test [5] it was > 100 µM (inactive); in test [20] it was > 100 µM (inactive). Also, the GI50 in test [6] was > 100 µM (inactive); in [7] it was > 100 µM (inactive); in test [8], > 100 µM (inactive); in [9], 0.893 µM (active); in [10], > 100 µM (inactive); in test [11], > 100 µM (inactive). Also, the GI50 in test [12], in test [14], in test [15], in [16], in test [17] and in test [18] was > 100 µM (inactive) in each case. Moreover, the GI50 in test [19] is > 100 µM (inactive).

For the compound `O=C1OCOC2(CCCC2)C1c1ccccc1` (configuration not stated), the GI50 in test [1] is > 100 µM (inactive); in [2], > 100 µM (inactive); in [3], > 100 µM; in test [4], > 100 µM (inactive); in test [20], > 100 µM (inactive); in [6], > 100 µM (inactive). For the same compound, the GI50 in test [7], in [8], in test [9], in [10], in test [11] and in [12] was > 100 µM (inactive) in each case. The GI50 in test [13], in [14], in [15], in test [16], in test [17] and in test [18] was > 100 µM (inactive) in each case. Further, in test [19], the GI50 is > 100 µM (inactive).

With `O=S(=O)(O)c1ccc(/N=N/c2ccc(/N=N/c3c(O)ccc4ccc(S(=O)(=O)O)cc34)cc2)cc1`, the GI50 is > 100 µM (inactive) in test [1]; > 100 µM (inactive) in [2]; > 100 µM in [3]; > 100 µM (inactive) in test [4]; > 100 µM (inactive) in test [5]; > 100 µM (inactive) in test [20]. Also, the GI50 in test [6], in test [7], in test [8], in test [9], in [10] and in [11] was > 100 µM (inactive) each time. The GI50 in test [12], in [13], in [14], in [16], in test [17] and in test [18] was > 100 µM (inactive) each time. In addition, the GI50 in [19] is > 100 µM (inactive).

For `CC(C)CC1C(=O)NCCC(NC(=O)C(Cc2ccc(OC(C)(C)C)cc2)NC(=O)OC(C)(C)C)C(=O)NC(Cc2ccccc2)C(=O)NC(Cc2ccccc2)NC1=O` (configuration not stated), the GI50 in [1] is 10.8 µM (inactive); in [2] it was 14.9 µM (inactive); in test [3], > 100 µM; in [4] it was 3.69 µM (inactive); in test [5], 17 µM (inactive); in [20], 10.3 µM (inactive). Moreover, the GI50 in test [6] is 5.75 µM (inactive); in [7], 7.89 µM (inactive); in test [8], 3.32 µM (inactive); in test [9], 8.36 µM (inactive); in [10] it was 18.3 µM (inactive); in test [11], 16 µM (inactive). The GI50 is 22 µM (inactive) in test [12]; 13.4 µM (inactive) in [13]; 6.35 µM (inactive) in test [14]; 4.51 µM (inactive) in test [16]; 5.68 µM (inactive) in [18]; 59.4 µM (inactive) in test [19].

With `CN(C)CCNc1ccccn1`, the GI50 in test [1] was > 100 µM (inactive); in test [2], > 100 µM (inactive); in test [3], > 100 µM; in test [4] it was > 100 µM (inactive); in test [20] it was > 100 µM (inactive); in test [6], > 100 µM (inactive). Moreover, the GI50 in [7], in [9], in test [10], in test [11], in test [13] and in test [14] was > 100 µM (inactive) in each case. Further, the GI50 in test [15], in test [16], in [17], in [18] and in test [19] was > 100 µM (inactive) throughout.

Consider `O=C1C[C@@H](c2ccc(O)cc2)[C@@]2(O1)C(=O)O[C@H]([C@@H](O)CO)[C@@H]2O`, for which the GI50 in test [1] is > 100 µM (inactive); in [2] it was > 100 µM (inactive); in test [3], > 100 µM; in test [4], > 100 µM (inactive); in test [5], > 100 µM (inactive); in test [6], > 100 µM (inactive). The GI50 in test [7], in test [8], in [9], in test [10], in [11] and in test [12] was > 100 µM (inactive) throughout. Moreover, the GI50 in test [13], in test [14], in test [15], in [16], in test [17] and in [18] was > 100 µM (inactive) in each case. The GI50 in [19] is > 100 µM (inactive).

Regarding `CNC(=O)CCCNC(=O)CCCC(=O)N(C)C`, the GI50 in test [1] is > 100 µM (inactive); in [3], > 100 µM; in [4], > 100 µM (inactive); in test [5], > 100 µM (inactive); in test [6], > 100 µM (inactive); in test [7] it was > 100 µM (inactive). The GI50 in test [8], in test [9], in test [10], in test [11], in test [12] and in [13] was > 100 µM (inactive) throughout. Besides, the GI50 in test [14], in test [15], in [16], in test [17], in test [18] and in test [19] was > 100 µM (inactive) in each case.
